{"source": "paper PMC4664966", "about": "“Discovery and characterization of novel inhibitors of the sodium-coupled citrate transporter (NaCT or SLC13A5)” (Scientific Reports, 2015)", "key": {"[1]": {"system": "human hepatocytes", "test": "Incorporation of [14C]-citrate into triglycerides by human hepatocytes", "format": "cell-based", "conditions": "radiolabeled citrate for 24 hours", "description": "Incorporation of [^14C]-citrate into triglycerides by human hepatocytes was measured using the same procedure as above except cells were incubated with the radioactive citrate for 24 hours. Subsequently, the media was aspirated and 100 μL of isopropyl alcohol:THF (9:1) was added. The plate was shaken for 15 minutes, centrifuged at 3000 revolutions per minute for 5 minutes, and 50 μL of supernatant from each well was applied per TLC lane (Whatman LK6D Silica Gel Plates). Radiolabeled lipids were resolved using a 2-solvent system: Solvent 1 contained a 100:100:100:40:36 mixture of ethyl acetate:isopropyl alcohol:CHCl3:MeOH:0.25% KCl and Solvent 2 a 70:27:3 hexane:diethyl ether:acetic acid mixture. The TLC plate was dried under nitrogen for 30 minutes and [^14C]-standards added to a vacant lane. Bands were visualized and quantitated using a Molecular Dynamics’ Storm 860 PhosphorImager system following 18–36 hours exposure to a Phosphorimager screen."}, "[2]": {"target": "Acetylcholinesterase (ACHE) (Homo sapiens, UniProt P22303)", "test": "Selectivity data (Table S1)", "format": "biochemical"}, "[3]": {"target": "Choline transporter (CHT1) (SLC5A7) (Homo sapiens, UniProt Q9GZV3)", "test": "Selectivity data (Table S1)"}, "[4]": {"target": "Adenosine receptor A1 (ADORA1) (Homo sapiens, UniProt P30542)", "sequence (P30542 whole entry)": "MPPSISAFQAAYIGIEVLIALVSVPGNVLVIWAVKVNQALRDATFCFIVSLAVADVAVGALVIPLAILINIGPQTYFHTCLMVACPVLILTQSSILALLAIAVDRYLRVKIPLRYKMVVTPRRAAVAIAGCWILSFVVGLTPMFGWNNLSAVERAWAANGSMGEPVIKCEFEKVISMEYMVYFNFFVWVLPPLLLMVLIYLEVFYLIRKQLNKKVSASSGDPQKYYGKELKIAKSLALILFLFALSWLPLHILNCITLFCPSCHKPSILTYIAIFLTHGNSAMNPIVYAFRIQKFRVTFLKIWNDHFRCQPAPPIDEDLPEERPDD", "test": "Selectivity data (Table S1)", "format": "binding"}, "[5]": {"target": "Sodium channel, neuronal alpha-subunit (NaV1.1) (Homo sapiens, UniProt P35498)", "test": "Selectivity data (Table S1)"}, "[6]": {"target": "Diacylglycerol acyltransferase 2 (DGAT2) (Homo sapiens, UniProt Q96PD7)", "test": "Selectivity data (Table S1)", "format": "biochemical"}, "[7]": {"system": "HEKNaCT cells", "test": "OCR and ECAR measurements in HEKNaCT cells incubated with citrate (Seahorse)", "format": "cell-based, human", "conditions": "30 μM compound", "description": "HEKNaCT cells were plated at 12,000 cells/well onto a poly-d-lysine coated XF96 plate (Sigma, Seahorse Biosciences). Cells were plated in culture media containing HG DMEM, 10% FBS, 2 mM glutamine, 1 mM pyruvate, 0.5 mg/mL Geneticin, and 1% penicillin/streptomycin (Life Technologies) and incubated overnight at 37 °C. The following day, the media was changed to Seahorse Biosciences assay medium (Seahorse Biosciences) supplemented with 10 mM glucose and 2 mM pyruvate (Sigma). The plate was pre-incubated for 1 hour in a 37 °C air incubator. […]"}, "[8]": {"target": "Epidermal growth factor receptor (EGFR) (Homo sapiens, UniProt P00533)", "sequence (P00533 25-1210)": "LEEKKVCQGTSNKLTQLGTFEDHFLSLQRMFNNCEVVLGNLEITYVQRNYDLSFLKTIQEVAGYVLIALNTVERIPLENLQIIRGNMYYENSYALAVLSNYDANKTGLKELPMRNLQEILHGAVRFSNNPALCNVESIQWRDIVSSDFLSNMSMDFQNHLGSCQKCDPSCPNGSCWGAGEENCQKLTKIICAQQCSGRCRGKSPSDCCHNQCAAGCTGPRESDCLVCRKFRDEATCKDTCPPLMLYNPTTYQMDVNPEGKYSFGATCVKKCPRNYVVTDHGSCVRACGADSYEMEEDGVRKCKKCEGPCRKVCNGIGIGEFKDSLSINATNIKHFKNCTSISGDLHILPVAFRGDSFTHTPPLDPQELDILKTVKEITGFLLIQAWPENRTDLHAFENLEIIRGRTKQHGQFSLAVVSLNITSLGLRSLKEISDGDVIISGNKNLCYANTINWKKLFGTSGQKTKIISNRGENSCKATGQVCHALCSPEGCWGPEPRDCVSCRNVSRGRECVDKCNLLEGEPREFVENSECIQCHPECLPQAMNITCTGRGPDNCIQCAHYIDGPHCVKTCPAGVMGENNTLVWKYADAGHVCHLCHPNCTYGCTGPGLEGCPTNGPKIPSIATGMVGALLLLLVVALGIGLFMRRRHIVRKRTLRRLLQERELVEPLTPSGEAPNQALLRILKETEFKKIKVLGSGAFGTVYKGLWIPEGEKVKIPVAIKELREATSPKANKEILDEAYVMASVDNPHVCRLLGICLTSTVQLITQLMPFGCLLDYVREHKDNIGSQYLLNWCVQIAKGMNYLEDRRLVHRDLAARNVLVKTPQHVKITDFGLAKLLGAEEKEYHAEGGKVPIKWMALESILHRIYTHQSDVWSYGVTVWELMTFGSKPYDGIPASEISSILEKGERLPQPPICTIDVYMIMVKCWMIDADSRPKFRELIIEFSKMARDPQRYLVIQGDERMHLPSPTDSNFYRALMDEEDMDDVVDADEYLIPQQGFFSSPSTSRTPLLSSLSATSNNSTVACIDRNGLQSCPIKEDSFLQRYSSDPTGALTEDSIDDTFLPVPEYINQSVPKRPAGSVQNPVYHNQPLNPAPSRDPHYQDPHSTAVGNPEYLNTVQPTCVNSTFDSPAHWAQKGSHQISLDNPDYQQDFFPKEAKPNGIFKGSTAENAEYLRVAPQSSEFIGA", "test": "Selectivity data (Table S1)", "format": "binding"}, "[9]": {"target": "Sodium channel, type V, alpha-subunit (NaV1.5) (Homo sapiens, UniProt Q14524)", "test": "Selectivity data (Table S1)"}, "[10]": {"target": "Histamine receptor (H3) (Homo sapiens, UniProt Q9Y5N1)", "sequence (Q9Y5N1 whole entry)": "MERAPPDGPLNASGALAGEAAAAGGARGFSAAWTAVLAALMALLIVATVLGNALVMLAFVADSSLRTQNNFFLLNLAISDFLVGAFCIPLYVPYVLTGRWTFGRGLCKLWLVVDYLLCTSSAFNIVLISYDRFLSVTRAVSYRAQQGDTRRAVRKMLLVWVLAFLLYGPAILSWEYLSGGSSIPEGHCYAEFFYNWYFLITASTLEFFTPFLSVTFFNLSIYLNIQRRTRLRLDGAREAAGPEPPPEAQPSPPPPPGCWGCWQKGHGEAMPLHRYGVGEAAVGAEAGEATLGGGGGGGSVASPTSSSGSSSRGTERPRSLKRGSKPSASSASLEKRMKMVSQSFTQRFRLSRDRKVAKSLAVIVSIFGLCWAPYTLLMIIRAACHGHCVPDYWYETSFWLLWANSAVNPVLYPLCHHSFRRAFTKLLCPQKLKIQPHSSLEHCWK", "test": "Selectivity data (Table S1)", "format": "binding"}, "[11]": {"target": "Angiotensin-converting enzyme 1 (ACE1) (Homo sapiens, UniProt P12821)", "sequence (P12821 30-1306)": "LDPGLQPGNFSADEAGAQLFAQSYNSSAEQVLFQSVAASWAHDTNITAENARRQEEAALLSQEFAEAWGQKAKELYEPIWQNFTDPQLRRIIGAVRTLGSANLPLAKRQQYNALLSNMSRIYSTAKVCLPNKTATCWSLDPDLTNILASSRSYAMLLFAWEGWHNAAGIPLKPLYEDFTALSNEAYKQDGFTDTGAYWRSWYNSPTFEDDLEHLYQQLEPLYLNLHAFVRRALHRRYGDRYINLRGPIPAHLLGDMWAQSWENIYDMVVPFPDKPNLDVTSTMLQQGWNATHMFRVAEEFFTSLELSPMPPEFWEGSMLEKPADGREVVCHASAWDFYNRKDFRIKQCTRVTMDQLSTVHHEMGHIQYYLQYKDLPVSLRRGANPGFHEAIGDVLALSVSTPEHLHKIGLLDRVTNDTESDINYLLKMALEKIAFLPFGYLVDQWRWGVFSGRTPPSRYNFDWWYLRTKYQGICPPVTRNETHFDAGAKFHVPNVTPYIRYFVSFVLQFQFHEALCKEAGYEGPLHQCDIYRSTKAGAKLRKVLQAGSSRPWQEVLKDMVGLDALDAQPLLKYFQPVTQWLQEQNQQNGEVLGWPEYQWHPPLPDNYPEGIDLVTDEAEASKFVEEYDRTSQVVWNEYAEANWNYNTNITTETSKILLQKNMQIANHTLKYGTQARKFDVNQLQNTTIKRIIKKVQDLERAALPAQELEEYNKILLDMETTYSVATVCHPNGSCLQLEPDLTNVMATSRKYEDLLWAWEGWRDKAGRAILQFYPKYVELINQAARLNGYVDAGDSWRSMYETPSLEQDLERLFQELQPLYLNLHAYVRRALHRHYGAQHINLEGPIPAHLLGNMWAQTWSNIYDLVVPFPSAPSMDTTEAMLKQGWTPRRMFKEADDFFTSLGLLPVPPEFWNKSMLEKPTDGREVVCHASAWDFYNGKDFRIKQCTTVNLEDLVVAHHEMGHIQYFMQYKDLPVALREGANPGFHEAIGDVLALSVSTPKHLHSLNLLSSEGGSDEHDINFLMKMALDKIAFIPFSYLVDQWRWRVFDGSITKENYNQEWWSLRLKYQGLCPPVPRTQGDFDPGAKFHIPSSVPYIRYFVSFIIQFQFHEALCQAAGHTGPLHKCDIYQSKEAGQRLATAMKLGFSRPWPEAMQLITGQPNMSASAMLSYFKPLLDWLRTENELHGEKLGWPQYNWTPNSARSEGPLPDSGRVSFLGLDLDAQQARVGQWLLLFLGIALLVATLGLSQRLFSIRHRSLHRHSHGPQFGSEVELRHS", "test": "Selectivity data (Table S1)", "format": "biochemical"}, "[12]": {"target": "Adrenergic receptor, alpha-2A (ADRA2A) (Homo sapiens, UniProt P08913)", "sequence (P08913 whole entry)": "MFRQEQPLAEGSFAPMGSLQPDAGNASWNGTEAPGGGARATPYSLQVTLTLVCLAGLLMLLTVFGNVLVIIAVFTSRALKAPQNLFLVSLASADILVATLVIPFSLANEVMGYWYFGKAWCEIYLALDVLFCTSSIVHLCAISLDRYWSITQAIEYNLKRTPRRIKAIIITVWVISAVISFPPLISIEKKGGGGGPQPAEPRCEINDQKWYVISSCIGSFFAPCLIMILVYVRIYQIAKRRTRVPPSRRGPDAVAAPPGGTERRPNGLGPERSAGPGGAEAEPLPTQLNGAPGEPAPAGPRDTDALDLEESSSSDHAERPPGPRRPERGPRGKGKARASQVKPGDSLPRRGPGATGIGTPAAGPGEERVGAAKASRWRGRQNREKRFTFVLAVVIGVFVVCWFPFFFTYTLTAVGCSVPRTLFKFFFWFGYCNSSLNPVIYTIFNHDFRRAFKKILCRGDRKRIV", "test": "Selectivity data (Table S1)", "format": "binding"}, "[13]": {"test": "Plasma fraction unbound", "format": "in vitro ADME", "conditions": "mouse, read-out: mouse plasma fu"}, "[14]": {"target": "Cyclooxygenase 2 (prostaglandin endoperoxide synthase 2) (Homo sapiens, UniProt P35354)", "test": "Selectivity data (Table S1)", "format": "biochemical"}, "[15]": {"target": "Adrenergic receptor, beta-2(ADRB2) (Homo sapiens, UniProt P07550)", "test": "Selectivity data (Table S1)", "format": "binding"}, "[16]": {"system": "Calcium channel, L-type", "test": "Selectivity data (Table S1)"}, "[17]": {"target": "Peroxisome proliferator activated receptor gamma (PPAR-gamma) (Homo sapiens, UniProt P37231)", "sequence (P37231 whole entry)": "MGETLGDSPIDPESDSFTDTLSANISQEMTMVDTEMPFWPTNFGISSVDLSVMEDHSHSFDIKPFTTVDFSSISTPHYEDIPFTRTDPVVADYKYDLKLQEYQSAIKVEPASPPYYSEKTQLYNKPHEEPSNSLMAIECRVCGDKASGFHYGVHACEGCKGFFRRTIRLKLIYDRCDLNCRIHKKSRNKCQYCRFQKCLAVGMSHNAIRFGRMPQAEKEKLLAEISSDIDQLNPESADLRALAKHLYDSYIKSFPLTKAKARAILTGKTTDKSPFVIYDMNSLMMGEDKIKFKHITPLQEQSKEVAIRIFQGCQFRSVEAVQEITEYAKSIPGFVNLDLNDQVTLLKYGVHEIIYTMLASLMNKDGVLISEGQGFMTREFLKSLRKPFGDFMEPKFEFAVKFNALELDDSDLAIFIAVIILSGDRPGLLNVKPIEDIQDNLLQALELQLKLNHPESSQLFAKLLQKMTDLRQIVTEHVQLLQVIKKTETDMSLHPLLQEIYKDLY", "test": "Selectivity data (Table S1)", "format": "binding"}, "[18]": {"target": "Potassium voltage-gated channel, KQT-like subfamily, member 1 (KCNQ1) (Homo sapiens, UniProt P51787)", "test": "in vitro"}, "[19]": {"system": "human hepatocytes", "test": "U-[13C]-citrate uptake and incorporation into TCA cycle intermediates in human hepatocytes", "format": "cell-based", "conditions": "500 μM U-[13C]-citrate, 30 μM compound", "description": "Primary hepatocytes were given the indicated substrates (compound and labeled citrate) under the same conditions used to generate the IC50 curves. Incubations were stopped by rapidly removing culture media and adding 80% methanol pre-cooled in dry ice. Cellular debris was removed by centrifugation and samples dried by Speedvac. Dried cell extracts were then re-dissolved in 100 μL HPLC-grade water. Citrate uptake was analyzed by injecting a 10 μL aliquot of sample onto an Imtakt UK-Phenyl (2.1 mm × 150 mm) column (Imtakt USA, Philadelphia, PA, USA) using a Waters Acquity UPLC system (Waters Corp., Milford, MA, USA) coupled to a Thermo Q-Exactive mass spectrometer (Thermo Corp., San Jose, CA, USA). […] Metabolites were monitored using negative ion electrospray, ESI(-), in full scan mode with a resolution of 70,000 FWHM calibrated to mass accuracy <2 ppm. […] Citrate transport was determined through enrichment of ^13C6-citrate into the intracellular pool of citrate as determined by the percent ^13C6-citrate in the total pool. Fate of citrate carbon through one turn of the TCA cycle was analyzed by comparing percent labeling into the respective pools of ^13C4-fumarate, ^13C4-malate, and ^13C4-glutamate. Thermo LCQuan (Thermo Corp, San Jose, CA, USA) was used to extract out exact mass using a 5 ppm window at the calculated accurate mass for each metabolite and its isotopomer. […]"}, "[20]": {"target": "Serotonin receptor 2B (5-HT2B) (Homo sapiens, UniProt P41595)", "sequence (P41595 whole entry)": "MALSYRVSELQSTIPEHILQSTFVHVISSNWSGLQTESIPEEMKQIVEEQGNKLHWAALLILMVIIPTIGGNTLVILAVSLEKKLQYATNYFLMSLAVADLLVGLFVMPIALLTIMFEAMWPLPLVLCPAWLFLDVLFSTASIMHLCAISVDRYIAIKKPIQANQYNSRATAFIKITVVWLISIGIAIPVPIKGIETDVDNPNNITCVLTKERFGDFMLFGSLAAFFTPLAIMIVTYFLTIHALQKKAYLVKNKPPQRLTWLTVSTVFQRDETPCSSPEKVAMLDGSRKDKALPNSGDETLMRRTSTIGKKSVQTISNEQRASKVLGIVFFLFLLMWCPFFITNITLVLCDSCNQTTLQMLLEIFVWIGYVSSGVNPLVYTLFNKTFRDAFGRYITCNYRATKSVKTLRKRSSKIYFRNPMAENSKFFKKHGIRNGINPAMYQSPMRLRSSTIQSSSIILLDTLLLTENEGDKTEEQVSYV", "test": "Selectivity data (Table S1)", "format": "binding"}, "[21]": {"target": "CYP3A4 (Homo sapiens, UniProt P08684)", "test": "Selectivity data (Table S1)", "format": "in vitro ADME", "conditions": "3 µM"}, "[22]": {"target": "Cytochrome P450 3A4 (CYP3A4) (Homo sapiens, UniProt P08684)", "test": "Selectivity data (Table S1)", "format": "in vitro ADME"}}, "note": "pIC50: −log10 of the molar value.", "data": [{"compound": "CC(C)(C)c1ccc(CC[C@@](O)(CC(=O)O)C(=O)O)cc1", "note": "[Compound 2]", "values": [{"measurement": "label incorporation in TAG", "setting": "[1]", "value": "decreased dose-dependently"}, {"measurement": "inhibition at 100 µM", "setting": "[2]", "value": "< 10", "unit": "%"}, {"measurement": "inhibition at 100 µM", "setting": "[3]", "value": "< 10", "unit": "%"}, {"measurement": "inhibition at 100 µM", "setting": "[4]", "value": "< 10", "unit": "%"}, {"measurement": "inhibition at 10 µM", "setting": "[5]", "value": "< 10", "unit": "%"}, {"measurement": "pIC50", "setting": "[6]", "value": "< 4.30"}, {"measurement": "effect on citrate induced increase in oxygen consumption rate (OCR)", "setting": "[7]", "value": "prevented citrate induced increase in mitochondrial respiration"}, {"measurement": "effect on citrate suppressed extracellular acidification rate (ECAR)", "setting": "[7]; citrate", "value": "restored"}, {"measurement": "inhibition at 100 µM", "setting": "[8]", "value": "< 10", "unit": "%"}, {"measurement": "inhibition at 10 µM", "setting": "[9]", "value": "< 10", "unit": "%"}, {"measurement": "inhibition at 100 µM", "setting": "[10]", "value": "< 10", "unit": "%"}, {"measurement": "inhibition at 100 µM", "setting": "[11]", "value": "< 10", "unit": "%"}, {"measurement": "inhibition at 100 µM", "setting": "[12]", "value": "< 10", "unit": "%"}, {"measurement": "fraction unbound", "setting": "[13]", "value": 0.26}, {"measurement": "inhibition at 100 µM", "setting": "[14]", "value": 22, "unit": "%"}, {"measurement": "inhibition at 100 µM", "setting": "[15]", "value": "< 10", "unit": "%"}, {"measurement": "pIC50", "setting": "[16]", "value": "< 4.52"}, {"measurement": "inhibition at 100 µM", "setting": "[17]", "value": "< 10", "unit": "%"}, {"measurement": "inhibition at 10 µM", "setting": "[18]", "value": "< 10", "unit": "%"}, {"measurement": "uniform labeling of citrate, malate, glutamate and fumarate from U-[13C]-citrate", "setting": "[19]", "value": "reduced"}, {"measurement": "inhibition at 100 µM", "setting": "[20]", "value": "< 10", "unit": "%"}, {"measurement": "inhibition at 3 µM", "setting": "[21]", "value": 12, "unit": "%"}, {"measurement": "interaction/inhibition of CYP3A4", "setting": "[22]", "value": "no significant interaction/inhibition"}]}]}
